Patent US12084708B1, “Acoustic wave resonator with active shunt capacitance cancellation and systems thereof” (National Technology & Engineering Solutions of Sandia, LLC, priority 2019, dated 2024)

Experiments:
E. coli MG1655 = assay: Dose response growth curve analysis (OD600), MG1655; type: cell-based
Protocol: To perform an initial test of the sensors' ability to detect response of bacteria to antibiotics, common molecular cloning strains and one pseudo-wild-type strain of E. coli were selected. TOP10, DH5α, and MG1655 strains are sensitive to kanamycin, ampicillin, or chloramphenicol in the absence of a plasmid conferring resistance. Dose response growth curve analysis was performed to determine appropriate concentrations of antibiotic to use with each strain and plasmid combination.

E. coli = settings: final concentration 1M; positive control for cell death
Protocol: For experiments in which bacteria were applied to the resonator devices, cultures were harvested at late log to early stationary phase. Cells were centrifuged at 5000× g for 5 minutes then resuspended in either fresh LB medium or phosphate-buffered saline. For antibiotic treatment, 200 µg/ml kanamycin was added to cells in the sensor devices.

CC1(C)S[C@@H]2[C@H](NC(=O)[C@H](N)c3ccccc3)C(=O)N2[C@H]1C(=O)O [ampicillin]
concentration at which growth inhibition was observed (E. coli MG1655; E. coli MG1655 cultures, varying doses, OD600, FIG. 16B): more than 1.56 μg/mL

NC[C@H]1O[C@H](O[C@H]2[C@H](O)[C@@H](O[C@H]3O[C@H](CO)[C@@H](O)[C@H](N)[C@H]3O)[C@H](N)C[C@@H]2N)[C@H](O)[C@@H](O)[C@@H]1O [kanamycin]
minimum concentration that completely blocked growth (E. coli MG1655; E. coli MG1655 without plasmid, full 24 hr culture time, OD600, FIG. 17): 25 µg/mL

[Na+].[OH-] [sodium hydroxide]
lysis of bacteria (E. coli): Complete lysis
